The text below walks through data of patent publication US20250195530A1, “POLQ INHIBITORS” (ASTRAZENECA AB, priority 2022, published 2025).

Like-named read-outs stand apart in the source and are kept apart here.

One experiment relates to DLD-1 BRCA2−/− cells. Kind of experiment: Homologous recombination synthetic lethal inhibition of proliferation, DLD-1 BRCA2-/- (Cell Titre Glo 3D). Format: cell-based. The settings on record: for IC50: Homo sapiens. Summed up: (§1)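 DLD-1 BRCA2−/− and parental DLD-1 cells exposed to 10-point dose range (10 μM to 0.51 nM, 3-fold) in RPMI/10% FBS at 37 °C, with medium and compound replenished on day 6. Viability by Cell Titre Glo 3D luminescence at day 7 (DLD-1) or day 12 (BRCA2−/−); IC50 as concentration halving maximum signal.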

The next experiment concerns DLD-1 cells. Kind of experiment: Inhibition of proliferation, DLD-1 BRCA2 wt control (Cell Titre Glo 3D). Type of experiment: cell-based. The settings on record: Homo sapiens. In outline:
as §1

Setting [1] is: DLD-1, 288 h, DLD-1 BRCA2−/− cells, 12 days, read-out: POLQ PD Prolif Lumin BRCA2 −/− mean pIC50 (converted).
Where [2] appears, read: DLD-1, 168 h, DLD-1 BRCA2 wt cells, 7 days, read-out: POLQ PD Prolif Lumin DLD1 mean pIC50 (converted).
The mark [3] stands for this setting: DLD-1, proliferation, luminescence, taken as DLD-1 BRCA2-/-, read-out: POLQ PD Prolif Lumin (converted).
The mark [4] stands for this setting: DLD-1, proliferation, luminescence, second Prolif column (c6), taken as DLD-1 BRCA2 wt control, read-out: POLQ PD Prolif Lumin (converted).
Where [5] appears, read: DLD-1, first proliferation column (c5), DLD-1 BRCA2-/-, read-out: POLQ PD Prolif Lumin (converted).
Where [6] appears, read: DLD-1, second proliferation column (c6), DLD-1 BRCA2 wt control, read-out: POLQ PD Prolif Lumin (converted).
Where [7] appears, read: DLD-1, DLD-1 BRCA2 −/−, mean, read-out: POLQ PD Prolif Lumin BRCA2 −/− mean pIC50 (converted).
[8] abbreviates: DLD-1, DLD1 BRCA2 wt, mean, read-out: POLQ PD Prolif Lumin DLD1 mean pIC50 (converted).

On to `CN1CCN(CCOc2ccc(-c3nc4c(OC5(C)CC5)ncnc4n3Cc3cccnc3)c(Cl)c2)CC1` [Example H7, 8-(2-chloro-4-(2-(4-methylpiperazin-1-yl)ethoxy)phenyl)-6-(1-methylcyclopropoxy)-9-(pyridin-3-ylmethyl)-9H-purine], for which the IC50 in the experiment with DLD-1 BRCA2−/− cells (setting [1]) was 1000 nM; in the experiment on DLD-1 cells (setting [2]), 3160 nM.

For the molecule `CN1CCN(CCOc2ccc(-c3nc4c(OC5(C)CC5)ncnc4n3Cc3ccccn3)c(Cl)c2)CC1` [Example E5, 8-(2-chloro-4-(2-(4-methylpiperazin-1-yl)ethoxy)phenyl)-6-(1-methylcyclopropoxy)-9-(pyridin-2-ylmethyl)-9H-purine], the IC50 in the experiment on DLD-1 BRCA2−/− cells (setting [1]) was 501 nM; in the experiment with DLD-1 cells (setting [2]) it was 7940 nM.

Regarding `CC(Cc1ccccn1)n1c(-c2ccc(OCCN3CCNCC3)cc2Cl)nc2c(OC3(C)CC3)ncnc21` (single isomer, unassigned) [Example S8, 8-(2-chloro-4-(2-(piperazin-1-yl)ethoxy)phenyl)-6-(1-methylcyclopropoxy)-9-(1-(pyridin-2-yl)propan-2-yl)-9H-purine], the “POLQ PD Prolif Lumin BRCA2 −/− mean pIC50” value in the experiment with DLD-1 BRCA2−/− cells (DLD-1 BRCA2−/− cells, 12 days) is 5.0. In addition, the IC50 with DLD-1 cells (setting [2]) is over 10000 nM.

For the molecule `CCc1ccnc(Cn2c(-c3ccc(OCCN4CCNCC4)cc3Cl)nc3c(OC4(C)CC4)ncnc32)c1` [Example S4, 8-(2-chloro-4-(2-(piperazin-1-yl)ethoxy)phenyl)-9-((4-ethylpyridin-2-yl)methyl)-6-(1-methylcyclopropoxy)-9H-purine], the IC50 was 794 nM in the experiment on DLD-1 BRCA2−/− cells (setting [1]) and over 10000 nM in the experiment on DLD-1 cells (setting [2]).

For the molecule `CC1(Oc2ncnc3c2nc(-c2cccc(C(=O)O)c2Cl)n3Cc2cccc(Cl)c2)CC1` [Example T12, 2-chloro-3-(9-(3-chlorobenzyl)-6-(1-methylcyclopropoxy)-9H-purin-8-yl)benzoic acid], the IC50 in the experiment with DLD-1 BRCA2−/− cells (DLD-1, DLD-1 BRCA2 −/− cells, mean, read-out: POLQ PD Prolif Lumin BRCA2 −/− mean pIC50 (converted)) is over 10000 nM; in the experiment on DLD-1 cells (DLD-1, DLD1 BRCA2 wt cells, mean, read-out: POLQ PD Prolif Lumin DLD1 mean PIC50 (converted)), over 10000 nM.

For the molecule `CN(C)CCCOc1ccc(-c2nc3c(OC4(C)CC4)ncnc3n2Cc2cc(Cl)ccn2)c(Cl)c1` [Example 17, 3-(3-Chloro-4-(9-((4-chloropyridin-2-yl)methyl)-6-(1-methylcyclopropoxy)-9H-purin-8-yl)phenoxy)-N,N-dimethylpropan-1-amine], the IC50 with DLD-1 BRCA2−/− cells (setting [1]) was 79.4 nM; in the experiment with DLD-1 cells (setting [2]), over 10000 nM.

Regarding `CC1(Oc2ncnc3c2nc(-c2ccc(OCCCN4CC(O)C4)cc2Cl)n3Cc2ccccc2)CC1` [Example H17, 1-(3-(4-(9-benzyl-6-(1-methylcyclopropoxy)-9H-purin-8-yl)-3-chlorophenoxy)propyl)azetidin-3-ol], the IC50 in the experiment with DLD-1 BRCA2−/− cells (setting [1]) is 63.1 nM; in the experiment on DLD-1 cells (setting [2]), 2000 nM.

On to `CC1(Oc2ncnc3c2nc(-c2ccc(OCCCN4CCNCC4=O)cc2Cl)n3Cc2ccccc2)CC1` [Example S1, 1-(3-(4-(9-benzyl-6-(1-methylcyclopropoxy)-9H-purin-8-yl)-3-chlorophenoxy)propyl)piperazin-2-one], for which the results for the IC50 in the experiment with DLD-1 BRCA2−/− cells (setting [1]) and in the experiment on DLD-1 cells (setting [2]) were 39.8 nM and over 10000 nM, respectively.

With `CC1(Oc2ncnc3c2nc(-c2ccc(OCCCOCCC(=O)O)cc2Cl)n3Cc2cccc(Cl)c2)CC1` [Example T449, 3-(3-(3-chloro-4-(9-(3-chlorobenzyl)-6-(1-methylcyclopropoxy)-9H-purin-8-yl)phenoxy)propoxy)propanoic acid], the IC50 in the experiment with DLD-1 BRCA2−/− cells (setting [3]) is 50.1 nM; with DLD-1 cells (setting [4]) it was over 10000 nM.

As for `Cc1cc(Cl)nc(Cn2c(-c3ccc(OCCN4CCNCC4)cc3Cl)nc3c(OC4(C)CC4)ncnc32)c1` [Example T524, 8-(2-chloro-4-(2-(piperazin-1-yl)ethoxy)phenyl)-9-((6-chloro-4-methylpyridin-2-yl)methyl)-6-(1-methylcyclopropoxy)-9H-purine], the results for the IC50 with DLD-1 BRCA2−/− cells (setting [5]) and in the experiment on DLD-1 cells (setting [6]) were 501 nM and over 10000 nM, respectively.

As to `CC1(Oc2ncnc3c2nc(-c2ccc(OCCOC(C)(C)C(=O)O)cc2Cl)n3Cc2cccc(Cl)c2)CC1` [Example T450, 2-(2-(3-chloro-4-(9-(3-chlorobenzyl)-6-(1-methylcyclopropoxy)-9H-purin-8-yl)phenoxy)ethoxy)-2-methylpropanoic acid], the IC50 with DLD-1 BRCA2−/− cells (setting [3]) was 200 nM; in the experiment on DLD-1 cells (setting [4]), over 10000 nM.

In the case of `CC1(Oc2ncnc3c2nc(-c2ccc(OCCN4CC[C@@H](O)C4)cc2Cl)n3Cc2cc(Cl)ccn2)CC1` [Example R2, (R)-1-(2-(3-chloro-4-(9-((4-chloropyridin-2-yl)methyl)-6-(1-methylcyclopropoxy)-9H-purin-8-yl)phenoxy)ethyl)pyrrolidin-3-ol], the values for the IC50 in the experiment with DLD-1 BRCA2−/− cells (setting [1]) and in the experiment on DLD-1 cells (setting [2]) were 126 nM and over 10000 nM, respectively.

Take `COc1ccc(C)cc1Cn1c(-c2cccc(OCCC(=O)O)c2Cl)nc2c(OC3(C)CC3)ncnc21` [Example U89, 3-(2-chloro-3-(9-(2-methoxy-5-methylbenzyl)-6-(1-methylcyclopropoxy)-9H-purin-8-yl)phenoxy)propanoic acid]: the IC50 in the experiment on DLD-1 BRCA2−/− cells (setting [7]) was 15.8 nM; in the experiment on DLD-1 cells (setting [8]) it was 7940 nM.

Consider `CC1(Oc2ncnc3c2nc(-c2ccc(OCCC4(C(=O)O)CC4)cc2Cl)n3Cc2cccc(Cl)c2)CC1` [Example T407, 1-(2-(3-chloro-4-(9-(3-chlorobenzyl)-6-(1-methylcyclopropoxy)-9H-purin-8-yl)phenoxy)ethyl)cyclopropane-1-carboxylic acid], for which the IC50 was 316 nM in the experiment with DLD-1 BRCA2−/− cells (setting [3]) and over 10000 nM in the experiment with DLD-1 cells (setting [4]).

Turning to `CC(CCOc1ccc(-c2nc3c(OC4(C)CC4)ncnc3n2Cc2ccccc2C#N)c(Cl)c1)C(=O)O` (racemic) [Example T400, 4-(3-chloro-4-(9-(2-cyanobenzyl)-6-(1-methylcyclopropoxy)-9H-purin-8-yl)phenoxy)-2-methylbutanoic acid], the IC50 in the experiment with DLD-1 BRCA2−/− cells (setting [3]) was 251 nM; with DLD-1 cells (setting [4]), over 10000 nM.

Take `CC1(Oc2ncnc3c2nc(-c2ccc(OC4CC5(CNC5)C4)cc2Cl)n3Cc2ccccc2)CC1` [Example D34, 8-(4-((2-azaspiro[3.3]heptan-6-yl)oxy)-2-chlorophenyl)-9-benzyl-6-(1-methylcyclopropoxy)-9H-purine]: the IC50 in the experiment with DLD-1 BRCA2−/− cells (setting [1]) is 200 nM; in the experiment with DLD-1 cells (setting [2]) it was 3980 nM.

Turning to `CC1(Oc2ncnc3c2nc(-c2ccc(OCCN4CC5(CC(O)C5)C4)cc2Cl)n3Cc2ccccc2)CC1` [Example H16, 2-(2-(4-(9-benzyl-6-(1-methylcyclopropoxy)-9H-purin-8-yl)-3-chlorophenoxy)ethyl)-2-azaspiro[3.3]heptan-6-ol], the IC50 in the experiment with DLD-1 BRCA2−/− cells (setting [1]) is 50.1 nM; in the experiment on DLD-1 cells (setting [2]) it was 5010 nM.

For `Cc1cc(OC[C@H]2COCCN2)ncc1-c1nc2c(OC3(C)CC3)ncnc2n1Cc1ccccc1` [Example G16, (R)-3-(((5-(9-benzyl-6-(1-methylcyclopropoxy)-9H-purin-8-yl)-4-methylpyridin-2-yl)oxy)methyl)morpholine], the IC50 in the experiment with DLD-1 BRCA2−/− cells (setting [1]) is 794 nM; in the experiment with DLD-1 cells (setting [2]), over 10000 nM.

Turning to `CC1(Oc2ncnc3c2nc(-c2ccc(OCCN4CCNCC4)cc2C(F)(F)F)n3Cc2cc(Cl)ccn2)CC1` [Example T453, 9-((4-chloropyridin-2-yl)methyl)-6-(1-methylcyclopropoxy)-8-(4-(2-(piperazin-1-yl)ethoxy)-2-(trifluoromethyl)phenyl)-9H-purine], the IC50 with DLD-1 BRCA2−/− cells (setting [3]) was 251 nM; with DLD-1 cells (setting [4]) it was over 10000 nM.

Take `COc1ccc(Cl)cc1Cn1c(-c2cccc(OCCCOCC(=O)O)c2Cl)nc2c(OC3(C)CC3)ncnc21` [Example U30, 2-(3-(2-chloro-3-(9-(5-chloro-2-methoxybenzyl)-6-(1-methylcyclopropoxy)-9H-purin-8-yl)phenoxy)propoxy)acetic acid]: the figures for the IC50 in the experiment on DLD-1 BRCA2−/− cells (setting [7]) and with DLD-1 cells (setting [8]) were 20 nM and over 10000 nM, respectively.

For `CC(C)(CCOc1cccc(-c2nc3c(OC4(C)CC4)ncnc3n2Cc2cccc(Cl)c2)c1Cl)CC(=O)O` [Example U28, 5-(2-chloro-3-(9-(3-chlorobenzyl)-6-(1-methylcyclopropoxy)-9H-purin-8-yl)phenoxy)-3,3-dimethylpentanoic acid], the figures for the IC50 with DLD-1 BRCA2−/− cells (setting [7]) and with DLD-1 cells (setting [8]) were 79.4 nM and over 10000 nM, respectively.

Regarding `Cc1cc(OCCN2CCCC2)ncc1-c1nc2c(OC3(C)CC3)ncnc2n1Cc1ccccc1` [Example 21, 9-Benzyl-8-(4-methyl-6-(2-(pyrrolidin-1-yl)ethoxy)pyridin-3-yl)-6-(1-methylcyclopropoxy)-9H-purine], the results for the IC50 in the experiment on DLD-1 BRCA2−/− cells (setting [1]) and with DLD-1 cells (setting [2]) were 398 nM and over 10000 nM, respectively.

`Cc1cc(OCCN2CCNCC2)ncc1-c1nc2c(OC3(C)CC3)ncnc2n1Cc1ccccc1` [Example G6, 9-benzyl-8-(4-methyl-6-(2-(piperazin-1-yl)ethoxy)pyridin-3-yl)-6-(1-methylcyclopropoxy)-9H-purine]: the IC50 is 501 nM in the experiment with DLD-1 BRCA2−/− cells (setting [1]) and over 10000 nM with DLD-1 cells (setting [2]).

In the case of `Cc1ccnc(Cn2c(-c3ccc(C(=O)NCCO)cc3Cl)nc3c(OC4(C)CC4)ncnc32)c1` [Example T119, 3-chloro-N-(2-hydroxyethyl)-4-(6-(1-methylcyclopropoxy)-9-((4-methylpyridin-2-yl)methyl)-9H-purin-8-yl)benzamide], the IC50 with DLD-1 BRCA2−/− cells (setting [5]) was 794 nM; with DLD-1 cells (setting [6]), over 10000 nM.
